Source: PMC6220787 (Clinical Pharmacology in Drug Development, 2018)
Read-outs that look alike come from different tables or passages of the source. One block for each molecule: values may come before it.

Assays:
[1] = healthy subjects, 412 μmol of CGA in 200 mL of coffee; cited from earlier work
[2] = cited from earlier work
[3] = assay type: in vivo, human
[4] = 60 mg of caffeine, single oral dose, healthy male subjects
[5] = Pharmacokinetics of chlorogenic acids; assay type: in vivo, human; conditions: for AUC0–4 h / tmax: analyte in blood after product 1, oral, healthy male subjects; for AUC0–4 h: mean (SD); for tmax: median (min, max)
[6] = analytical recovery test in plasma; cited from earlier work
[7] = after product 1, relative to 4‐CQA
[8] = after product 1, relative to 5‐CQA

SMILES: COc1cc(CCC(=O)O)ccc1O [dihydroferulic acid]
tmax in plasma [1]: 5.2 h

SMILES: Cn1c(=O)c2c(ncn2C)n(C)c1=O [caffeine]
caffeine half‐life ([2]; adult men, dose of 4 mg/kg): 2.5 to 4.5 h
mean half‐life of caffeine in plasma ([2]; healthy individuals): about 5 hours
known half‐life of caffeine ([2]; stated as known): ~5 h
known tmax of caffeine ([2]; stated as known): approximately 60 minutes

SMILES: O=C(/C=C/c1ccc(O)c(O)c1)O[C@@H]1C[C@](O)(C(=O)O)C[C@@H](O)[C@H]1O [5‐CQA, 5‐O‐caffeoylquinic acid]
AUC0–4 h [5]: 15.7 (10.4) ng·h/mL
tmax [5]: 1.50 (0.75, 2.50) h
hydrolyzed into caffeic acid [6]: ~7%

SMILES: O=C(/C=C/c1ccc(O)c(O)c1)O[C@H]1[C@H](O)C[C@](O)(C(=O)O)C[C@H]1O [4‐CQA, 4‐O‐caffeoylquinic acid]
AUC0–4 h [5]: 16.1 (9.80) ng·h/mL
tmax [5]: 1.00 (0.75, 4.00) h

Continued, in another order:

GMR (90%CI) of AUC0–4 h of caffeine ([3]; geometric least‐squares mean ratio, product 1 to product 2): 98.33%
AUC(0-t) ([3]; male, human, serum, oral, 60 mg): 5600 ng·h/mL
Cmax ([3]; male, human, serum, po, 60 mg): 2090 ng/mL
tmax ([3]; male, human, serum, po, 60 mg): 37.8 min
SMILES: Cn1c(=O)c2c(ncn2C)n(C)c1=O [Product 2, caffeine]
adverse events [4]: no adverse events

AUC0–4 h greater than that of 4‐CQA [5, 7]: ~41%
concentration (Cmax) greater than that of 4‐CQA [5, 7]: 60%
AUC0–4 h greater than that of 5‐CQA [5, 8]: 42.5%
concentration (Cmax) greater than that of 5‐CQA [5, 8]: 58%
SMILES: O=C(/C=C/c1ccc(O)c(O)c1)O[C@@H]1C[C@](O)(C(=O)O)C[C@@H](O)[C@H]1O [3‐CQA, 3‐O‐caffeoylquinic acid]
